# Measurements from patent publication US12448369B2 (Edgewise Therapeutics, Inc., priority 2023, dated 2025).
# System: Rabbit Psoas myofibrils (skeletal myosin ATPase)
# Assay: Myofibril ATPase assay, rabbit psoas (skeletal) myofibrils
# Assay type: biochemical
# Conditions: Y75 value (no ‡ mark); rabbit psoas myofibrils
# Summary of the method: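 Values derive from concentration–response fits of NADH consumption rates at 340 nm, normalized to vehicle-only wells, as Y75 or Y125. Myofibril ATP turnover was linked to NADH via PK/LDH in Ca/EGTA-buffered PIPES, pH 7.0, and read over 75 min.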
row,SMILES,Skeletal EC25 [µM]
1,"Cc1nc([C@H](C)NC(=O)Cc2c(C)c3c(C)c(F)ccc3[nH]c2=O)ncc1C#N (single isomer, unassigned) [compound 4840]",0.29
2,Cc1c(CC(=O)N[C@@H](C)c2ncc(C#N)cc2F)c(=O)[nH]c2ccc(F)c(C(F)(F)F)c12 [compound 22],0.00
3,"N#Cc1cnc2c(c1)CC[C@@H]2NC(=O)C1(c2cc3c(F)c(F)ccc3[nH]c2=O)CC1 (single isomer, unassigned) [compound 4824]",8.80
4,C[C@H](NC(=O)Cc1cc2cc(C#N)ccc2[nH]c1=O)c1ccc(F)cc1F [compound 121],3.75
5,"N#Cc1cnc2c(c1)CC[C@H]2NC(=O)Cc1cc2c(F)c(F)ccc2[nH]c1=O (single isomer, unassigned) [compound 7]",0.81
6,"N#Cc1cnc2c(c1)CC[C@H]2NC(=O)C1(c2cc3c(F)c(F)ccc3[nH]c2=O)CC1 (single isomer, unassigned) [compound 4823]",42.66
7,N#Cc1ccc([C@H](CO)NC(=O)Cc2c(C3CC3)c3cc(F)ccc3[nH]c2=O)c(F)c1 [compound 76],100.00
8,"Cc1c(C(F)(F)C(=O)N[C@@H](C)c2ncc(C#N)cc2F)c(=O)[nH]c2cccc(F)c12 (single isomer, unassigned) [compound 2533]",0.06
9,Cc1c(F)ccc2[nH]c(=O)c(CC(=O)N[C@@H](C)c3ncc(F)cc3F)c(C#N)c12 [compound 1148],0.05
10,"Cc1c(O)ccc2[nH]c(=O)c(CC(=O)N[C@H](C)c3ncc(F)cc3F)cc12 (single isomer, unassigned) [compound 77]",47.84
11,Cc1c(CC(=O)N[C@H](C)c2ncc(C#N)cc2F)c(=O)[nH]c2cccc(C#N)c12 [compound 1080],0.12
12,Cc1cc(C#N)ccc1[C@@H](C)NC(=O)Cc1c(O)c2cc(F)c(F)cc2[nH]c1=O [compound 1088],100.00
13,"C[C@H](NC(=O)C1(c2cc3c(F)c(F)ccc3[nH]c2=O)CC1)c1ncc(C#N)cc1F (single isomer, unassigned) [compound 2593]",1.15
14,Cc1c(CC(=O)N[C@@H](C)c2ccc(C#N)cn2)c(=O)[nH]c2cc(F)c(F)cc12 [compound 1113],0.47
15,Cc1nc(C#N)ncc1[C@@H](C)NC(=O)Cc1cc2cc(F)c(F)cc2[nH]c1=O [compound 1096],12.10
16,Cc1cc(C#N)cnc1[C@H](C)NC(=O)Cc1c(O)c2c(C)c(F)ccc2[nH]c1=O [compound 1121],100.00
17,Cc1c(CC(=O)N[C@@H](C)c2ccc(C#N)cn2)c(=O)[nH]c2cccc(F)c12 [compound 54],0.04
18,"Cc1c(F)ccc2[nH]c(=O)c(C(F)(F)C(=O)N[C@H](C)c3ncc(C#N)cn3)c(C#N)c12 (single isomer, unassigned) [Compound 2511]",0.28
19,"Cc1c(CC(=O)N[C@H](C)c2ncc(C3COC3)cn2)c(=O)[nH]c2ccc(F)c(F)c12 (single isomer, unassigned) [compound 2043]",7.03

# System: Porcine atria myofibrils (atrial myosin ATPase)
# Assay: Myofibril ATPase assay, porcine atria myofibrils
# Assay type: biochemical
# Conditions: Y75 value (no ‡ mark); porcine atria myofibrils
# Summary of the method: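 Atrial myofibril ATPase measured by NADH-coupled absorbance at 340 nm; vehicle-normalized slopes fitted to give Y75 or Y125 values.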
row,SMILES,Atrial EC25 [µM]
1,"Cc1nc([C@H](C)NC(=O)Cc2c(C)c3c(C)c(F)ccc3[nH]c2=O)ncc1C#N (single isomer, unassigned) [compound 4840]",1.44
2,Cc1c(CC(=O)N[C@@H](C)c2ncc(C#N)cc2F)c(=O)[nH]c2ccc(F)c(C(F)(F)F)c12 [compound 22],0.02
3,"N#Cc1cnc2c(c1)CC[C@@H]2NC(=O)C1(c2cc3c(F)c(F)ccc3[nH]c2=O)CC1 (single isomer, unassigned) [compound 4824]",100.00
4,C[C@H](NC(=O)Cc1cc2cc(C#N)ccc2[nH]c1=O)c1ccc(F)cc1F [compound 121],100.00
5,"N#Cc1cnc2c(c1)CC[C@H]2NC(=O)Cc1cc2c(F)c(F)ccc2[nH]c1=O (single isomer, unassigned) [compound 7]",3.80
6,"N#Cc1cnc2c(c1)CC[C@H]2NC(=O)C1(c2cc3c(F)c(F)ccc3[nH]c2=O)CC1 (single isomer, unassigned) [compound 4823]",8.47
7,N#Cc1ccc([C@H](CO)NC(=O)Cc2c(C3CC3)c3cc(F)ccc3[nH]c2=O)c(F)c1 [compound 76],100.00
8,"Cc1c(C(F)(F)C(=O)N[C@@H](C)c2ncc(C#N)cc2F)c(=O)[nH]c2cccc(F)c12 (single isomer, unassigned) [compound 2533]",0.13
9,Cc1c(F)ccc2[nH]c(=O)c(CC(=O)N[C@@H](C)c3ncc(F)cc3F)c(C#N)c12 [compound 1148],0.06
10,"Cc1c(O)ccc2[nH]c(=O)c(CC(=O)N[C@H](C)c3ncc(F)cc3F)cc12 (single isomer, unassigned) [compound 77]",100.00
11,Cc1c(CC(=O)N[C@H](C)c2ncc(C#N)cc2F)c(=O)[nH]c2cccc(C#N)c12 [compound 1080],0.21
12,Cc1cc(C#N)ccc1[C@@H](C)NC(=O)Cc1c(O)c2cc(F)c(F)cc2[nH]c1=O [compound 1088],5.78
13,"C[C@H](NC(=O)C1(c2cc3c(F)c(F)ccc3[nH]c2=O)CC1)c1ncc(C#N)cc1F (single isomer, unassigned) [compound 2593]",0.19
14,Cc1c(CC(=O)N[C@@H](C)c2ccc(C#N)cn2)c(=O)[nH]c2cc(F)c(F)cc12 [compound 1113],0.97
15,Cc1nc(C#N)ncc1[C@@H](C)NC(=O)Cc1cc2cc(F)c(F)cc2[nH]c1=O [compound 1096],31.81
16,Cc1cc(C#N)cnc1[C@H](C)NC(=O)Cc1c(O)c2c(C)c(F)ccc2[nH]c1=O [compound 1121],100.00
17,Cc1c(CC(=O)N[C@@H](C)c2ccc(C#N)cn2)c(=O)[nH]c2cccc(F)c12 [compound 54],0.11
18,"Cc1c(F)ccc2[nH]c(=O)c(C(F)(F)C(=O)N[C@H](C)c3ncc(C#N)cn3)c(C#N)c12 (single isomer, unassigned) [Compound 2511]",0.76
19,"Cc1c(CC(=O)N[C@H](C)c2ncc(C3COC3)cn2)c(=O)[nH]c2ccc(F)c(F)c12 (single isomer, unassigned) [compound 2043]",1.01

# Biological target: T1, Porcine ventricle myofibrils (ventricular myosin ATPase) (Sus scrofa, UniProt P79293)
# T1 construct: Myofibrils from porcine cardiac muscle was isolated from the left ventricle of Yucatan minipigs; tissue Exemplar Genetics; host or cells: left ventricle of Yucatan minipigs, myofibrils prepared in house
# Assay: Myofibril ATPase assay, porcine ventricle myofibrils
# Assay type: biochemical, porcine (Yucatan minipigs)
# Conditions: Y75 value (no ‡ mark); porcine ventricle myofibrils
# Summary of the method: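 Myofibrils isolated from Yucatan minipig left ventricle; coupled PK/LDH NADH assay, pCa buffer pH 7.0, kinetic A340 reads over 75 min. Vehicle-normalized slopes fit 4PL; Y75/Y125 derived.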
# T1 sequence (P79293 whole entry): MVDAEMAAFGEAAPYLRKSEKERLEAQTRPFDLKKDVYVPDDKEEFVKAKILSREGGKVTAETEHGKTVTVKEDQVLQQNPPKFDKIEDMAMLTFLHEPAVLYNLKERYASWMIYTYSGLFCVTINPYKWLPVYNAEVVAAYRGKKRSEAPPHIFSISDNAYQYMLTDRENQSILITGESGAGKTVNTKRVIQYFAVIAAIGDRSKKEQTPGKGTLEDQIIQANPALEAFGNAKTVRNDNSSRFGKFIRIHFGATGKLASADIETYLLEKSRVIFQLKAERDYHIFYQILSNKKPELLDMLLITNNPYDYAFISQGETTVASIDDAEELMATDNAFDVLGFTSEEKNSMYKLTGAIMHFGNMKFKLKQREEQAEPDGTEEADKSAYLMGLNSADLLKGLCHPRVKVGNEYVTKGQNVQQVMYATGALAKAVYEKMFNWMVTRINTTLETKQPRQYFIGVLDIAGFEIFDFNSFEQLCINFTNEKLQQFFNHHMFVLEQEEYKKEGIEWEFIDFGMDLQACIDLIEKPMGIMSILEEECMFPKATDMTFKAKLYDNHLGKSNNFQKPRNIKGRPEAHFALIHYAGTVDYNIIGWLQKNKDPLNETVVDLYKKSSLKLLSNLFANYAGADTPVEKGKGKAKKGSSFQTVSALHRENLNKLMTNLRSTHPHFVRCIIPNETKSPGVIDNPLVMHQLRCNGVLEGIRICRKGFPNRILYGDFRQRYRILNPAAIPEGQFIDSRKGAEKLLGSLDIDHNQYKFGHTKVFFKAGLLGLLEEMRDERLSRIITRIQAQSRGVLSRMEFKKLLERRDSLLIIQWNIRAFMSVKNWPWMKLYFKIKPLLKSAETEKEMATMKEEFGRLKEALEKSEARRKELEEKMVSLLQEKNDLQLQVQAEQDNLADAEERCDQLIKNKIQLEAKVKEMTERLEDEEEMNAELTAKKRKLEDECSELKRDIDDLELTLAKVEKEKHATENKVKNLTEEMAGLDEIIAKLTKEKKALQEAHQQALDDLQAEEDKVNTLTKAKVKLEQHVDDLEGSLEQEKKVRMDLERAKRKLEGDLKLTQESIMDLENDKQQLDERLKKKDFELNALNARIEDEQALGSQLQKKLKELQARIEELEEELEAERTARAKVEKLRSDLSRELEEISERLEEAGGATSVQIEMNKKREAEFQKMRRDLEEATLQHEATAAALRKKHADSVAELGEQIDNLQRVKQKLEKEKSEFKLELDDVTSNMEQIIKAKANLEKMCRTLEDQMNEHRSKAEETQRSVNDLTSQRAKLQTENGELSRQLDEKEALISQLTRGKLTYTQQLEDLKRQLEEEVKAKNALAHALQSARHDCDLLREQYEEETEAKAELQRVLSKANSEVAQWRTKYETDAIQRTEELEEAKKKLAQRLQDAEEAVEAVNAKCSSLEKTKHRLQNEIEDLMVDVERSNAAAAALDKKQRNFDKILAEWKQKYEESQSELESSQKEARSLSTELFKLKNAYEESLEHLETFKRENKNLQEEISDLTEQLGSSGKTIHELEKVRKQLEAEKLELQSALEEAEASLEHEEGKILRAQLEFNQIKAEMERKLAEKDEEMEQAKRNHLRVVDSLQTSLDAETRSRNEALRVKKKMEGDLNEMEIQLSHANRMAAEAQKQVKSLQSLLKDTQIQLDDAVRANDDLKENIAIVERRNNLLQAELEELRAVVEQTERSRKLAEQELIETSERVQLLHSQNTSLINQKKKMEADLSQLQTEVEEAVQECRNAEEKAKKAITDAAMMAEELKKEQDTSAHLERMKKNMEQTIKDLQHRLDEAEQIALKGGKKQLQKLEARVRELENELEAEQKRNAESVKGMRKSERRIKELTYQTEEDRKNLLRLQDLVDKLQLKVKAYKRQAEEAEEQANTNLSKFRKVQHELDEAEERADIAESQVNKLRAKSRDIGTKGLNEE
row,SMILES,Ventricular EC25 [µM]
1,"Cc1nc([C@H](C)NC(=O)Cc2c(C)c3c(C)c(F)ccc3[nH]c2=O)ncc1C#N (single isomer, unassigned) [compound 4840]",1.62
2,Cc1c(CC(=O)N[C@@H](C)c2ncc(C#N)cc2F)c(=O)[nH]c2ccc(F)c(C(F)(F)F)c12 [compound 22],0.02
3,"N#Cc1cnc2c(c1)CC[C@@H]2NC(=O)C1(c2cc3c(F)c(F)ccc3[nH]c2=O)CC1 (single isomer, unassigned) [compound 4824]",100.00
4,C[C@H](NC(=O)Cc1cc2cc(C#N)ccc2[nH]c1=O)c1ccc(F)cc1F [compound 121],100.00
5,"N#Cc1cnc2c(c1)CC[C@H]2NC(=O)Cc1cc2c(F)c(F)ccc2[nH]c1=O (single isomer, unassigned) [compound 7]",1.27
6,"N#Cc1cnc2c(c1)CC[C@H]2NC(=O)C1(c2cc3c(F)c(F)ccc3[nH]c2=O)CC1 (single isomer, unassigned) [compound 4823]",100.00
7,N#Cc1ccc([C@H](CO)NC(=O)Cc2c(C3CC3)c3cc(F)ccc3[nH]c2=O)c(F)c1 [compound 76],100.00
8,"Cc1c(C(F)(F)C(=O)N[C@@H](C)c2ncc(C#N)cc2F)c(=O)[nH]c2cccc(F)c12 (single isomer, unassigned) [compound 2533]",0.13
9,Cc1c(F)ccc2[nH]c(=O)c(CC(=O)N[C@@H](C)c3ncc(F)cc3F)c(C#N)c12 [compound 1148],0.09
10,"Cc1c(O)ccc2[nH]c(=O)c(CC(=O)N[C@H](C)c3ncc(F)cc3F)cc12 (single isomer, unassigned) [compound 77]",100.00
11,Cc1c(CC(=O)N[C@H](C)c2ncc(C#N)cc2F)c(=O)[nH]c2cccc(C#N)c12 [compound 1080],0.36
12,Cc1cc(C#N)ccc1[C@@H](C)NC(=O)Cc1c(O)c2cc(F)c(F)cc2[nH]c1=O [compound 1088],100.00
13,"C[C@H](NC(=O)C1(c2cc3c(F)c(F)ccc3[nH]c2=O)CC1)c1ncc(C#N)cc1F (single isomer, unassigned) [compound 2593]",1.00
14,Cc1c(CC(=O)N[C@@H](C)c2ccc(C#N)cn2)c(=O)[nH]c2cc(F)c(F)cc12 [compound 1113],2.55
15,Cc1nc(C#N)ncc1[C@@H](C)NC(=O)Cc1cc2cc(F)c(F)cc2[nH]c1=O [compound 1096],100.00
16,Cc1cc(C#N)cnc1[C@H](C)NC(=O)Cc1c(O)c2c(C)c(F)ccc2[nH]c1=O [compound 1121],100.00
17,Cc1c(CC(=O)N[C@@H](C)c2ccc(C#N)cn2)c(=O)[nH]c2cccc(F)c12 [compound 54],1.53
18,"Cc1c(F)ccc2[nH]c(=O)c(C(F)(F)C(=O)N[C@H](C)c3ncc(C#N)cn3)c(C#N)c12 (single isomer, unassigned) [Compound 2511]",2.64
19,"Cc1c(CC(=O)N[C@H](C)c2ncc(C3COC3)cn2)c(=O)[nH]c2ccc(F)c(F)c12 (single isomer, unassigned) [compound 2043]",4.16
